biological target: ATP-dependent translocase ABCB1 (Homo sapiens, UniProt P08183); assay: Inhibition of P-glycoprotein expressed in MDR CCRF vcr1000 cells by daunorubicin efflux assay
Sequence (P08183 whole entry): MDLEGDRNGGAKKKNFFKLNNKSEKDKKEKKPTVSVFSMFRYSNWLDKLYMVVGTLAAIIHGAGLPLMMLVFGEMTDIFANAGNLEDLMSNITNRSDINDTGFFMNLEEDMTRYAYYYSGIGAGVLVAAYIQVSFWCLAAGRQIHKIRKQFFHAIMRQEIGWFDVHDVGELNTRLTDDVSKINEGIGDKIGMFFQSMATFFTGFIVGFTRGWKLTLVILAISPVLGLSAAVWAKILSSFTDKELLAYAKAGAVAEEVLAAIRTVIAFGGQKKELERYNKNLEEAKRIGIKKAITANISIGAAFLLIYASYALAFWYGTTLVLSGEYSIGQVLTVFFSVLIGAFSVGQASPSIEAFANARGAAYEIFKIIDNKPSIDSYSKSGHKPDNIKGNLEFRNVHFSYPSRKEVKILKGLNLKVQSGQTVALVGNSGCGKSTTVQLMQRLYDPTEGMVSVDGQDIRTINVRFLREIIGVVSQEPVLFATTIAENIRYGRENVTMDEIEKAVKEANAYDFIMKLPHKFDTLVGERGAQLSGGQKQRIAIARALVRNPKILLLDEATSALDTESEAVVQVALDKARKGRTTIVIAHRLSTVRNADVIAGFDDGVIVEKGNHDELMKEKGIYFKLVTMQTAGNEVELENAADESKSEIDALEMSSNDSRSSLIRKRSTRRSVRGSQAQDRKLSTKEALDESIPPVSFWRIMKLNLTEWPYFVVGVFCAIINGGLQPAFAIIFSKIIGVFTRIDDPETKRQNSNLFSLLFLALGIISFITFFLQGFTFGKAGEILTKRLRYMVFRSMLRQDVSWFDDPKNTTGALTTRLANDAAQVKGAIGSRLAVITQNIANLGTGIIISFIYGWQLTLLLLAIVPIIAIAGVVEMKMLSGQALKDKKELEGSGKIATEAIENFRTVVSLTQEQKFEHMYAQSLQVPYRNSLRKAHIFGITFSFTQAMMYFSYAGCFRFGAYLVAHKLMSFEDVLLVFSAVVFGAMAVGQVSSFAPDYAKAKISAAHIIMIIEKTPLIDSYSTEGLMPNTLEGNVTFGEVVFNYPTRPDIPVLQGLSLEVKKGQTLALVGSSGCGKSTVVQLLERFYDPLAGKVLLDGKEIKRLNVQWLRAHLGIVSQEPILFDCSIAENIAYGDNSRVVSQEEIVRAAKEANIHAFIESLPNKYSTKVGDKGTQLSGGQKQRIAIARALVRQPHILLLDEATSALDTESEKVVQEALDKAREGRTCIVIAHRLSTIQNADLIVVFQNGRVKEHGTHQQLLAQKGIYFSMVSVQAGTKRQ

SMILES	EC50
CC(C)N(CC(O)COc1ccccc1C(=O)CCc1cccc2ccccc12)C(C)C (stereo not given)	0.465 µM
COC(=O)c1ccc(NCC(O)COc2ccccc2C(=O)CCc2ccccc2)cc1 (stereo not given)	1.54 µM
O=C(C1Oc2ccccc2C1CCc1ccccc1)N1CCCCC1 (stereo not given)	6.66 µM
CCCNCC(O)COc1ccc(OCc2ccccc2)cc1C(=O)CCc1ccccc1 (stereo not given)	0.11 µM
CCN(CC)CC(O)COc1ccccc1C(=O)CCc1ccccc1 (stereo not given)	0.907 µM
O=C(CCc1ccccc1)c1cccc(OCC(O)CNCCC(c2ccccc2)c2ccccc2)c1 (stereo not given)	0.19 µM
O=C(CCc1ccccc1)c1ccccc1OCCCCCCCCN1CCCCC1	0.137 µM
CCOc1ccccc1NC(=O)C1=C(C)NC(=S)NC1c1cccs1 (stereo not given)	8.77 µM
CC(C)(C)C(NCC(O)COc1ccccc1C(=O)CCc1ccccc1)c1ccccc1 (stereo not given)	0.292 µM
OC(COc1ccccc1C(O)CCc1ccccc1)CN1CCN(c2ccc(F)cc2)CC1 (stereo not given)	0.671 µM
COC(CCc1ccccc1)c1ccccc1OCC(O)CN(C(C)C)C(C)C (stereo not given)	0.658 µM
CCC(=O)N(Cc1ccccc1)CC(O)COc1ccccc1C(=O)CCc1ccccc1 (stereo not given)	1.65 µM
O=C(O)COc1ccccc1C(=O)CCc1ccccc1	1590 µM
CCOC(=O)COc1ccccc1C(=O)CCc1ccccc1	23.2 µM
O=C(CCc1ccccc1)c1ccccc1OCCCCN1CCN(c2ccc(F)cc2)CC1	0.192 µM
O=C(CCc1ccccc1)c1ccccc1OCCCCCCN1CCCCC1	0.203 µM
COc1ccc(C(=O)CCc2ccc(N(C)C)cc2)c(OCC(O)CN2CCN(c3ccccc3C)CC2)c1 (stereo not given)	0.04 µM
Cc1ccc(N2CCN(CC(O)COc3cccc4c3C(=O)C(Cc3ccccc3)C4)CC2)c(C)c1 (stereo not given)	0.167 µM
O=C(CCc1ccccc1)c1ccccc1OCC(O)CNC(c1ccccc1)C1CCCCC1 (stereo not given)	0.145 µM
O=C(CCc1ccccc1)c1ccc(OCC(O)CN2CCCCC2)cc1 (stereo not given)	0.972 µM
CCc1ccc(N2C(=O)c3ccccc3NC2c2ccc(OCC(C)C)cc2)cc1 (stereo not given)	1.21 µM
C=CCn1c(SCCCC)nc2c(c1=O)C1(CCCC1)Cc1ccccc1-2	3.5 µM
O=C(CCc1ccccc1)c1ccccc1OCCCCCN1CCCCC1	0.242 µM
CC(C)N(CC(O)COc1ccc(C(=O)CCc2ccccc2)cc1)C(C)C (stereo not given)	0.915 µM

Continued, values first:

EC50	SMILES
0.537 µM	CC(=O)c1cccc(OCC(O)CN2CCN(c3ccccc3C)CC2)c1 (stereo not given)
14.3 µM	CCC(=O)c1ccccc1OCC(O)CN1CCCCC1 (stereo not given)
1.55 µM	CC(=O)c1ccc(OCC(O)CN2CCN(c3ccccc3C)CC2)cc1 (stereo not given)
0.173 µM	COC(CCc1ccccc1)c1ccccc1OCC(O)CN1CCCCC1 (stereo not given)
0.678 µM	COc1cccc(N2CCN(CC(O)COc3ccccc3C(=O)CCc3ccccc3)CC2)c1 (stereo not given)
0.659 µM	O=C(CCc1ccccc1)c1ccccc1OCC(O)CN1CCN(Cc2ccccc2)CC1 (stereo not given)
3.65 µM	O=C(CCc1ccccc1)c1ccccc1OCC(O)CN1CCOCC1 (stereo not given)
0.07 µM	O=C(CCc1ccccc1)c1ccccc1OCC(O)CN1CCN(c2ccc(F)cc2)CC1 (stereo not given)
6.88 µM	O=C(CCc1ccccc1)c1ccc(OCC(O)CN2CCOCC2)cc1 (stereo not given)
0.147 µM	O=C(c1ccccc1)c1ccccc1OCC(O)CN1CCN(c2ccc(F)cc2)CC1 (stereo not given)
207 µM	CC(=O)c1ccccc1OCC(O)CN1CCOCC1 (stereo not given)
11.2 µM	O=C1CCc2c(OCC(O)CN3CCCCC3)cccc21 (stereo not given)
0.018 µM	Cc1ccc(CCC(=O)c2ccccc2OCC(O)CN2CCN(c3ccccc3C)CC2)cc1 (stereo not given)
9.54 µM	OC(COc1ccccc1C(O)CCc1ccccc1)CN1CCOCC1 (stereo not given)
0.142 µM	O=C1c2cccc(OCC(O)CN3CCCCC3)c2CC1Cc1ccccc1 (stereo not given)
0.259 µM	O=C(CCc1ccccc1)c1ccccc1OCC(O)CN1CCC(Cc2ccccc2)CC1 (stereo not given)
0.23 µM	COc1ccccc1N1CCN(CC(O)COc2ccccc2C(=O)CCc2ccccc2)CC1 (stereo not given)
2.09 µM	CC(=O)c1ccccc1OCC(O)CN1CCN(c2ccc(F)cc2)CC1 (stereo not given)
11.9 µM	CC(=O)c1ccc(OCC(O)CN2CCN(c3ccc(F)cc3)CC2)cc1 (stereo not given)
67 µM	CCC(=O)c1ccccc1OCC(O)CN1CCOCC1 (stereo not given)
0.859 µM	COc1ccc(OCC(O)CN2CCN(c3ccccc3C)CC2)c(C(C)=O)c1 (stereo not given)
